Assay results as given in patent publication US4820695A, “C-20-dihydro-deoxy-(cyclic amino)-derivatives of macrolide antibiotics” (priority 1987, dated 1989).
≈ marks a conversion by molar mass, not a printed value. Like-named read-outs stand apart in the source and are kept apart here.

How the values were obtained:
[1] = test system: Staphylococcus epidermidis EPI1; assay: MIC, standard agar-dilution assay (Table IX); assay type: cell-based; conditions: Staphylococcus epidermidis EPI1; agar-dilution; read-out: MIC
[2] = test system: Staphylococcus aureus S13E; assay: MIC, standard agar-dilution assay (Table IX); assay type: cell-based; conditions: Staphylococcus aureus, S13E
[3] = test system: Streptococcus pyogenes C203; assay: MIC, standard agar-dilution assay (Table IX); assay type: cell-based; conditions: read-out: MIC
Escherichia coli N10 = assay: MIC, standard agar-dilution assay (Table IX); assay type: cell-based; conditions: read-out: MIC
[4] = test system: Staphylococcus aureus V41; assay: MIC, standard agar-dilution assay (Table IX); assay type: cell-based; conditions: Staphylococcus aureus V41, Penicillin-resistant strain, read-out: MIC
[5] = test system: Staphylococcus aureus X400; assay: MIC, standard agar-dilution assay (Table IX); assay type: cell-based; conditions: Staphylococcus aureus X400, Methicillin-resistant strain, read-out: MIC
Staphyloccus aureus X1.1 = assay: MIC, standard agar-dilution assay (Table IX); assay type: cell-based, Staphylococcus aureus; conditions: Staphylococcus aureus, read-out: MIC
Escherichia coli EC14 = assay: MIC, standard agar-dilution assay (Table IX); assay type: cell-based; conditions: read-out: MIC
[6] = test system: Haemophilus influenzae C.L.; assay: MIC, standard agar-dilution assay (Table IX); assay type: cell-based; conditions: Ampicillin-sensitive strain, read-out: MIC
Escherichia coli TEM = assay: MIC, standard agar-dilution assay (Table IX); assay type: cell-based; conditions: read-out: MIC
Pasteurella multocida [7] = assay: Pasteurella infection in one-day-old chicks, medicated drinking water (Table XIII); assay type: in vivo; conditions: Administered in the available drinking water at 2 g/gal
Protocol: Many of the C-20 modified derivatives of this invention have also shown in vivo antibacterial activity against infections induced by gram-negative bacteria. Tables XII and XIII summarize the results of tests in which illustrative compounds were evaluated against a Pasteurella infection in one-day-old chicks. The compounds were administered parenterally or orally after challenge of the chicks with Pasteurella multocida (0.1 ml of a 10^-4 dilution of a twenty-hour tryptose broth culture of an avian P. multocida given subcutaneously). In these tests, unless indicated otherwise, all non-medicated infected chicks died within 24 hours of Pasteurella challenge. In the tests summarized in Table XII, the compounds were administered by subcutaneous injection at a dosage of 30 mg/kg, 1 and 4 hours post-challenge of the chicks with P. multocida. In the tests summarized in Table XIII the compounds were administered in medicated drinking water (at a level of 2 g/gal) available from 4 to 20 hours prior to challenge of the chicks with P. multocida and during the 3 -day test period.
^a Administered in the available drinking water at a concentration of […]

[8] = test system: Haemophilus influenzae 76; assay: MIC, standard agar-dilution assay (Table IX); assay type: cell-based; conditions: Haemophilus influenzae 76, Ampicillin-resistant strain, read-out: MIC
Pasteurella multocida [9] = assay: Pasteurella infection in one-day-old chicks, subcutaneous administration (Table XII); assay type: in vivo; conditions: Administered subcutaneously, 30 mg/kg × 2, 1 and 4 hours post-challenge
How it was run: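 Treatment was 30 mg/kg s.c., given twice (1 and 4 h after infection). The infection itself was induced in day-old chicks by s.c. injection of 0.1 ml of avian Pasteurella multocida culture (20-h tryptose broth, diluted 10^-4).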

[10] = test system: Streptococcus pyogenes C203; assay: ED50 in mice experimentally infected with S. pyogenes C203 (Table XI); assay type: in vivo; conditions: Streptococcus pyogenes, doses given 1 and 4 hours postinfection, read-out: ED50
How it was run: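 Protective ED50 (mg/kg × 2) was determined as the dose sparing half the animals. Test compound was given twice, at 1 and 4 hours after experimental S. pyogenes C203 infection of mice.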

[11] = test system: Streptococcus pneumoniae Park I; assay: MIC, standard agar-dilution assay (Table IX); assay type: cell-based; conditions: Streptococcus pneumoniae Park I; agar-dilution; read-out: MIC
[12] = test system: Streptococcus Group D 2041; assay: MIC, standard agar-dilution assay (Table IX); assay type: cell-based; conditions: GROUPD2041, read-out: MIC
[13] = test system: Staphylococcus epidermidis 222; assay: MIC, standard agar-dilution assay (Table IX); assay type: cell-based; conditions: read-out: MIC
[14] = test system: Pasteurella hemolytica 22C; assay: MIC, broth-dilution microtiter test (Table X); assay type: cell-based; conditions: read-out: MIC
Text: (§1) The MIC's in Table X were obtained using conventional broth-dilution microtiter tests.

[15] = test system: Mycoplasma gallisepticum 29C; assay: MIC, broth-dilution microtiter test (Table X); assay type: cell-based; conditions: Mycoplasmoides gallisepticum, read-out: MIC
Text: as §1

Mycoplasma hyorhinis 29E = assay: MIC, broth-dilution microtiter test (Table X); assay type: cell-based; conditions: read-out: MIC
Text: as §1

Staphylococcus aureus = assay: MIC, broth-dilution microtiter test (Table X); assay type: cell-based; conditions: read-out: MIC
Text: as §1

Streptococcus sp. 19F = assay: MIC, broth-dilution microtiter test (Table X); assay type: cell-based; conditions: read-out: MIC
Text: as §1

[16] = test system: Mycoplasma hyopneumoniae S5972; assay: MIC, broth-dilution microtiter test (Table X); assay type: cell-based; conditions: Mesomycoplasma hyopneumoniae, read-out: MIC
Text: as §1

[17] = test system: Pasteurella multocida 60A; assay: MIC, broth-dilution microtiter test (Table X); assay type: cell-based; conditions: Avian isolate, read-out: MIC
Text: as §1

[18] = test system: Pasteurella multocida 17E; assay: MIC, broth-dilution microtiter test (Table X); assay type: cell-based; conditions: Bovine isolate, read-out: MIC
Text: as §1

Mycoplasma synoviae 40A = assay: MIC, broth-dilution microtiter test (Table X); assay type: cell-based; conditions: Mycoplasmopsis synoviae, read-out: MIC
Text: as §1

[19] = test system: Streptococcus Group D X66; assay: MIC, standard agar-dilution assay (Table IX); assay type: cell-based; conditions: read-out: MIC
Klebsiella X26 = assay: MIC, standard agar-dilution assay (Table IX); assay type: cell-based; conditions: read-out: MIC
[20] = Titratable groups in 66% aqueous DMF (Tables XIV-XVI); assay type: physicochemical
Text: ^c Run in 66% aqueous DMF
^d Run in 66% aqueous DMF

[21] = test system: Staphylococcus aureus 19C; assay: MIC, broth-dilution microtiter test (Table X); assay type: cell-based
Text: as §1

Row | MIC [21] | Structure (SMILES) | MIC [1] | MIC [2] | MIC [3] | MIC (Escherichia coli N10) | MIC [4] | MIC [5] | MIC (Staphyloccus aureus X1.1) | MIC (Escherichia coli EC14) | MIC [6] | ED50 ([10]; C203, Oral) | ED50 ([10]; C203, sc, Subcutaneous) | MIC [14] | MIC [15] | MIC (Mycoplasma hyorhinis 29E) | MIC (Streptococcus sp. 19F) | MIC [16] | MIC [17] | MIC [18] | MIC (Mycoplasma synoviae 40A) | also measured
1 | – | CCC1OC(=O)CC(O)C(C)C(OC2OC(C)C(O)C(N(C)C)C2O)C(CCN2CCCCCC2)CC(C)C(=O)C=CC(C)=CC1COC1OC(C)C(O)C(OC)C1OC (stereo not shown) [Compound D5, 20-DH-DO-20-(Hexahydroazepin-1-yl)desmycosin] | 0.5 µg/mL (≈ 0.585 µM) | 0.25 µg/mL (≈ 0.292 µM) | 0.5 µg/mL (≈ 0.585 µM) | 128 µg/mL (≈ 150 µM) | 0.5 µg/mL (≈ 0.585 µM) | 1 µg/mL (≈ 1.17 µM) | 0.5 µg/mL (≈ 0.585 µM) | 4 µg/mL (≈ 4.68 µM) | 16 µg/mL (≈ 18.7 µM) | 50 mg/kg | 1.3 mg/kg | 1.56 µg/mL (≈ 1.82 µM) | 1.56 µg/mL (≈ 1.82 µM) | 50 µg/mL (≈ 58.5 µM) | 3.12 µg/mL (≈ 3.65 µM) | 1.56 µg/mL (≈ 1.82 µM) | 3.12 µg/mL (≈ 3.65 µM) | 3.12 µg/mL (≈ 3.65 µM) | 0.39 µg/mL (≈ 0.456 µM) | MIC (Escherichia coli TEM): 8 µg/mL (≈ 9.36 µM); Number of Deaths/Number Treated (Pasteurella multocida [7]): 2/10; MIC [8]: 128 µg/mL (≈ 150 µM); Number of Deaths/Number Treated (Pasteurella multocida [9]): 0/10; MIC [11]: 0.5 µg/mL (≈ 0.585 µM); MIC [12]: 8 µg/mL (≈ 9.36 µM); MIC [13]: 0.12 µg/mL (≈ 0.14 µM); MIC (Staphylococcus aureus): 1.56 µg/mL (≈ 1.82 µM); MIC [19]: 8 µg/mL (≈ 9.36 µM); MIC (Klebsiella X26): > 128 µg/mL; pKa ([20]; Titratable groups): 9.6; pKa ([20]; Titratable groups (first value)): 7.9
2 | 1.56 µg/mL (≈ 1.72 µM) | CCC1OC(=O)CC(O)C(C)C(OC2OC(C)C(O)C(N(C)C)C2O)C(CCN2CCC3(CCCCC3)CC2)CC(C)C(=O)C=CC(C)=CC1COC1OC(C)C(O)C(OC)C1OC (stereo not shown) [Compound D43] | – | – | – | – | – | – | – | – | – | 8 mg/kg | 1.34 mg/kg | 6.25 µg/mL (≈ 6.87 µM) | 0.195 µg/mL (≈ 0.214 µM) | 25 µg/mL (≈ 27.5 µM) | 1.56 µg/mL (≈ 1.72 µM) | 0.78 µg/mL (≈ 0.858 µM) | 6.25 µg/mL (≈ 6.87 µM) | 6.25 µg/mL (≈ 6.87 µM) | < 0.048 µg/mL | –
3 | 3.12 µg/mL (≈ 3.6 µM) | CCC1OC(=O)CC(O)C(C)C(OC2OC(C)C(O)C(N(C)C)C2O)C(CCN2CC3CCC(C3)C2)CC(C)C(=O)C=CC(C)=CC1COC1OC(C)C(O)C(OC)C1OC (stereo not shown) [Compound D46] | – | – | – | – | – | – | – | – | – | – | – | 6.25 µg/mL (≈ 7.21 µM) | 0.195 µg/mL (≈ 0.225 µM) | 25 µg/mL (≈ 28.8 µM) | 1.56 µg/mL (≈ 1.8 µM) | 3.12 µg/mL (≈ 3.6 µM) | 12.5 µg/mL (≈ 14.4 µM) | 6.25 µg/mL (≈ 7.21 µM) | 1.56 µg/mL (≈ 1.8 µM) | Number of Deaths/Number Treated (Pasteurella multocida [7]): 3/10

Row | Structure (SMILES) | MIC [21] | MIC [1] | MIC [2] | MIC [3] | MIC (Escherichia coli N10) | MIC [4] | MIC [5] | MIC (Staphyloccus aureus X1.1) | MIC (Escherichia coli EC14) | MIC [6] | ED50 ([10]; C203, Oral) | ED50 ([10]; C203, sc, Subcutaneous) | MIC [14] | MIC [15] | MIC (Mycoplasma hyorhinis 29E) | MIC (Streptococcus sp. 19F) | MIC [16] | MIC [17] | MIC [18] | MIC (Mycoplasma synoviae 40A) | also measured
4 | CCC1OC(=O)CC(O)C(C)C(OC2OC(C)C(O)C(N(C)C)C2O)C(CCN2C(C)CCCC2C)CC(C)C(=O)C=CC(C)=CC1COC1OC(C)C(O)C(OC)C1OC (stereo not shown) [Compound D41] | 6.25 µg/mL (≈ 7.19 µM) | 8 µg/mL (≈ 9.2 µM) | 8 µg/mL (≈ 9.2 µM) | 1 µg/mL (≈ 1.15 µM) | > 128 µg/mL | 8 µg/mL (≈ 9.2 µM) | 8 µg/mL (≈ 9.2 µM) | 8 µg/mL (≈ 9.2 µM) | > 128 µg/mL | 64 µg/mL (≈ 73.6 µM) | > 100 mg/kg | 2.04 mg/kg | > 50 µg/mL | 6.25 µg/mL (≈ 7.19 µM) | 50 µg/mL (≈ 57.5 µM) | 6.25 µg/mL (≈ 7.19 µM) | 3.12 µg/mL (≈ 3.59 µM) | 50 µg/mL (≈ 57.5 µM) | 25 µg/mL (≈ 28.8 µM) | 1.56 µg/mL (≈ 1.79 µM) | MIC (Escherichia coli TEM): > 128 µg/mL; MIC [8]: 64 µg/mL (≈ 73.6 µM); MIC [11]: 1 µg/mL (≈ 1.15 µM); MIC [12]: 32 µg/mL (≈ 36.8 µM); MIC [13]: 2 µg/mL (≈ 2.3 µM); MIC [19]: 32 µg/mL (≈ 36.8 µM); MIC (Klebsiella X26): 128 µg/mL (≈ 147 µM)
